# Source: BindingDB's records for doi:10.1021/acs.biochem.6b00412 (Duquesne University, 2016)
# Target: T1, Trifunctional purine biosynthetic protein adenosine-3 (Homo sapiens, UniProt P22102)
# T1 sequence (P22102 whole entry): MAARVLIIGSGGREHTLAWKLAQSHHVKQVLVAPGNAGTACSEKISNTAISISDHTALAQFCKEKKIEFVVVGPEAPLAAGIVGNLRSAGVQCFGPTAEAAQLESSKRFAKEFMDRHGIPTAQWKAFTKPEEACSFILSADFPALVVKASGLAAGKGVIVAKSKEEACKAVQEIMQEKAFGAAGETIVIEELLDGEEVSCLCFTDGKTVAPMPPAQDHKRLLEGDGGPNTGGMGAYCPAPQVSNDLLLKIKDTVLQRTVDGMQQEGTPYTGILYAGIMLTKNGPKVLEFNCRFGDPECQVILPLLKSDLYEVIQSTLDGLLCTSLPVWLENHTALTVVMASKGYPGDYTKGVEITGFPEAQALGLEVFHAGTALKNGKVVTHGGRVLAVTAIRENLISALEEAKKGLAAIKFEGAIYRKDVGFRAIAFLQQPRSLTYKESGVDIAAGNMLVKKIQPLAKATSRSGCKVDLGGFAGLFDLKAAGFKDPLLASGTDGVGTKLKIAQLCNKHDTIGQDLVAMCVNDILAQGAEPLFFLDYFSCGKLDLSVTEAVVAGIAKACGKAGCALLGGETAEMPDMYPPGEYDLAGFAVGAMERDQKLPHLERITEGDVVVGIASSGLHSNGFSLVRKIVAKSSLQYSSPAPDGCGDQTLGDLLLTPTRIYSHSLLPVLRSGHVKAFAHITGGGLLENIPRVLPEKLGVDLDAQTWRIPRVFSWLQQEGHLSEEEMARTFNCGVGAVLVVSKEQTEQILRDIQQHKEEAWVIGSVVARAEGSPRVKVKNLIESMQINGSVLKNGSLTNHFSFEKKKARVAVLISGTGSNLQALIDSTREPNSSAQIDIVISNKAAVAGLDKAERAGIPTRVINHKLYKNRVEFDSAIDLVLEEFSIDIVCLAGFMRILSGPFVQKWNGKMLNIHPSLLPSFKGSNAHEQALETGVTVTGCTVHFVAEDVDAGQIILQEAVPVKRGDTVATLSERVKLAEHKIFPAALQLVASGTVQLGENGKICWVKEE
# Assay: GAR Transformylase Inhibition Assay
# Conditions: pH 7.5
# Description: To initiate the assay, 150 μL of 20 nM His-GARFTase or buffer was added, and the plate was shaken for 5 s. […] For each antifolate, triplicate assays were performed at 20 different drug concentrations.
row,SMILES,Ki [nM]
1,Nc1nc2[nH]c(CCCCCCCC(=O)N[C@@H](CCC(=O)O)C(=O)O)cc2c(=O)[nH]1,99
2,"Nc1nc2[nH]c(CCCCc3ccc(C(=O)N[C@@H](CCC(=O)O)C(=O)O)s3)cc2c(=O)[nH]1 [(S)-2-({5-[4-(2-Amino-4-oxo-4,7-dihydro-3H-pyrrolo[2,3-d]-pyrimidin-6-yl)-butyl]-thiophene-2-carbonyl}-amino)-pentanedioicAcid]",22
3,Nc1nc2[nH]c(CCCCc3ccc(C(=O)N[C@@H](CCC(=O)O)C(O)O)cc3)cc2c(=O)[nH]1 [AGF23],17
4,Nc1nc2sc(CCCCc3ccc(C(=O)N[C@@H](CCC(=O)O)C(O)O)cc3)cc2c(=O)[nH]1 [AGF50],1070
5,Nc1nc2[nH]c(CCCCCCC(=O)N[C@H](CCC(=O)O)C(=O)O)cc2c(=O)[nH]1 [AGF145],67
